Tests used:
AMBEL (Ragweed, Common) [1] = test: Preemergence herbicidal evaluation; assay type: in vivo, Ambrosia artemisifolia; details: rated 4-5 weeks after treatment
Summary of the method: (§1)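 Greenhouse preemergence test: seed-soil mix sown on ~1 inch soil; aqueous acetone spray at equivalent of ~0.0156–0.500 kg/ha; greenhouse-held and watered; scored 0–9 visually at 4–5 weeks.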

ORYSAT (Rice, Tebonnet) = test: Postemergence herbicidal evaluation; assay type: in vivo, Oryza sativa, (L.) Tebonnet
Summary of the method: (§2)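 Visual 0–9 rating versus control (stand, vigor, malformation, size, chlorosis, overall appearance), taken four to five weeks post-spray. Two-week-old seedlings received roughly 0.0156–0.500 kg/ha active in acetone/water (50/50) with 0.5% TWEEN 20 via nozzle at 40 psi.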

ECHCG (Barnyardgrass) = test: Postemergence herbicidal evaluation; assay type: in vivo, Echinochloa crus-galli
Summary of the method: as §2

CYPIR (Rice Flatsedge) = test: Postemergence weed control under flooded paddy conditions; assay type: in vivo, Cyperus iria; details: postemergence weeds, 3-4 weeks after treatment
Summary of the method: (§3)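 Weeds 3 to 5 cm tall and rice seedlings at the 1.5 to 2.5 leaf stage were flooded, with water held 1.5 to 3 cm above the soil. Compounds in 50/50 v/v aqueous/acetone went into the flood water at about 0.0313 to 0.500 kg/ha. Visual 0-9 ratings versus control were made 3 to 4 weeks later.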

GALAP (Galium) = test: Preemergence herbicidal evaluation; assay type: in vivo, Galium aparine; details: rated 4-5 weeks after treatment
Summary of the method: as §1

AMBEL (Ragweed, Common) [2] = test: Postemergence herbicidal evaluation; assay type: in vivo, Ambrosia artemisifolia
Summary of the method: as §2

ABUTH (Velvetleaf) = test: Postemergence herbicidal evaluation; assay type: in vivo, Abutilon theophrasti
Summary of the method: as §2

CYPSE (Flatsedge) [3] = test: Preemergence weed control under flooded paddy conditions; assay type: in vivo, Cyperus serotinus; details: rated 3-4 weeks after treatment
Summary of the method: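 Ratings on a 0-9 visual scale cover stand, vigor, malformation, size, chlorosis and overall appearance relative to a control, taken three to four weeks post-treatment. Application was into flood water over freshly sown silt loam at roughly 0.0313 to 0.500 kg/ha.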

ZEAMX (Corn, Field) = test: Postemergence herbicidal evaluation; assay type: in vivo, Zea mays
Summary of the method: as §2

CASOB (Sicklepod) = test: Preemergence herbicidal evaluation; assay type: in vivo, Cassia obtusifolia; details: rated 4-5 weeks after treatment
Summary of the method: as §1

[4] = test system: CHEAL (Lambsquarters, Common); test: Preemergence herbicidal evaluation; assay type: in vivo, Chenopodium album; details: rated 4-5 weeks after treatment
Summary of the method: as §1

[5] = test system: GLXMAW (Soybean, Williams); test: Postemergence herbicidal evaluation; assay type: in vivo, Glycine max, (L.) Merr. cv Williams
Summary of the method: as §2

CYPSE (Flatsedge) [6] = test: Postemergence weed control under flooded paddy conditions; assay type: in vivo, Cyperus serotinus; details: postemergence weeds, 3-4 weeks after treatment
Summary of the method: as §3

[7] = test system: CHEAL (Lambsquarters, Common); test: Postemergence herbicidal evaluation; assay type: in vivo, Chenopodium album
Summary of the method: as §2

C=CCN1C(=O)C(CC(=O)Nc2ccccc2)SC1=Nc1cc(-n2c(=O)cc(C(F)(F)F)n(C)c2=O)c(F)cc1Cl (stereo not shown) [Compound 44, 3-Allyl-2-{{2-chloro-5-[3,6-dihydro-3-methyl-2,6-dioxo-4-(trifluoromethyl)-1(2H)-pyrimidinyl]-4-fluorophenyl}imino}-4-oxo-5-thiazolidineacetanilide]
Preemergence herbicidal rating AMBEL (AMBEL (Ragweed, Common) [1]; rate 0.0156 kg/ha): 0.0
Preemergence herbicidal rating AMBEL (AMBEL (Ragweed, Common) [1]; rate 0.0313 kg/ha): 0.0
Preemergence herbicidal rating AMBEL (AMBEL (Ragweed, Common) [1]; rate 0.0625 kg/ha): 0.0
Preemergence herbicidal rating AMBEL (AMBEL (Ragweed, Common) [1]; rate 0.1250 kg/ha): 0.0
Preemergence herbicidal rating AMBEL (AMBEL (Ragweed, Common) [1]; rate 0.2500 kg/ha): 2.0
Preemergence herbicidal rating AMBEL (AMBEL (Ragweed, Common) [1]; rate 0.5000 kg/ha): 4.0
Postemergence herbicidal rating ORYSAT (ORYSAT (Rice, Tebonnet); Rate 0.0156 kg/ha): 3.0
Postemergence herbicidal rating ORYSAT (ORYSAT (Rice, Tebonnet); Rate 0.0313 kg/ha): 4.0
Postemergence herbicidal rating ORYSAT (ORYSAT (Rice, Tebonnet); Rate 0.0625 kg/ha): 4.0
Postemergence herbicidal rating ORYSAT (ORYSAT (Rice, Tebonnet); Rate 0.1250 kg/ha): 4.0
Postemergence herbicidal rating ECHCG (ECHCG (Barnyardgrass); Rate 0.0156 kg/ha): 0.0
Postemergence herbicidal rating ECHCG (ECHCG (Barnyardgrass); Rate 0.0313 kg/ha): 1.0
Postemergence herbicidal rating ECHCG (ECHCG (Barnyardgrass); Rate 0.0625 kg/ha): 2.0
Postemergence herbicidal rating ECHCG (ECHCG (Barnyardgrass); Rate 0.1250 kg/ha): 1.0
Herbicidal rating CYPIR (CYPIR (Rice Flatsedge); rate 0.0313 kg/ha): 5.0
Herbicidal rating CYPIR (CYPIR (Rice Flatsedge); rate 0.0625 kg/ha): 6.0
Herbicidal rating CYPIR (CYPIR (Rice Flatsedge); rate 0.1250 kg/ha): 6.0
Herbicidal rating CYPIR (CYPIR (Rice Flatsedge); rate 0.2500 kg/ha): 9.0
Preemergence herbicidal rating GALAP (GALAP (Galium); rate 0.0156 kg/ha): 1.0
Preemergence herbicidal rating GALAP (GALAP (Galium); rate 0.0313 kg/ha): 1.0
Preemergence herbicidal rating GALAP (GALAP (Galium); rate 0.0625 kg/ha): 1.0
Preemergence herbicidal rating GALAP (GALAP (Galium); rate 0.1250 kg/ha): 9.0
Preemergence herbicidal rating GALAP (GALAP (Galium); rate 0.2500 kg/ha): 9.0
Preemergence herbicidal rating GALAP (GALAP (Galium); rate 0.5000 kg/ha): 9.0
Postemergence herbicidal rating AMBEL (AMBEL (Ragweed, Common) [2]; Rate 0.0156 kg/ha): 4.0
Postemergence herbicidal rating AMBEL (AMBEL (Ragweed, Common) [2]; Rate 0.0313 kg/ha): 4.0
Postemergence herbicidal rating AMBEL (AMBEL (Ragweed, Common) [2]; Rate 0.0625 kg/ha): 7.0
Postemergence herbicidal rating AMBEL (AMBEL (Ragweed, Common) [2]; Rate 0.1250 kg/ha): 9.0
Postemergence herbicidal rating ABUTH (ABUTH (Velvetleaf); Rate 0.0156 kg/ha): 9.0
Postemergence herbicidal rating ABUTH (ABUTH (Velvetleaf); Rate 0.0313 kg/ha): 7.0
Postemergence herbicidal rating ABUTH (ABUTH (Velvetleaf); Rate 0.0625 kg/ha): 9.0
Postemergence herbicidal rating ABUTH (ABUTH (Velvetleaf); Rate 0.1250 kg/ha): 9.0
Herbicidal rating CYPSE (CYPSE (Flatsedge) [3]; 0.0313 kg/ha): 0.0
Herbicidal rating CYPSE (CYPSE (Flatsedge) [3]; 0.0625 kg/ha): 0.0
Herbicidal rating CYPSE (CYPSE (Flatsedge) [3]; 0.1250 kg/ha): 0.0
Herbicidal rating CYPSE (CYPSE (Flatsedge) [3]; 0.2500 kg/ha): 0.0
Postemergence herbicidal rating ZEAMX (ZEAMX (Corn, Field); Rate 0.0156 kg/ha): 5.0
Postemergence herbicidal rating ZEAMX (ZEAMX (Corn, Field); Rate 0.0313 kg/ha): 5.0
Postemergence herbicidal rating ZEAMX (ZEAMX (Corn, Field); Rate 0.0625 kg/ha): 5.0
Postemergence herbicidal rating ZEAMX (ZEAMX (Corn, Field); Rate 0.1250 kg/ha): 5.0
Preemergence herbicidal rating CASOB (CASOB (Sicklepod); rate 0.0156 kg/ha): 0.0
Preemergence herbicidal rating CASOB (CASOB (Sicklepod); rate 0.0313 kg/ha): 0.0
Preemergence herbicidal rating CASOB (CASOB (Sicklepod); rate 0.0625 kg/ha): 0.0
Preemergence herbicidal rating CASOB (CASOB (Sicklepod); rate 0.1250 kg/ha): 1.0
Preemergence herbicidal rating CASOB (CASOB (Sicklepod); rate 0.2500 kg/ha): 0.0
Preemergence herbicidal rating CASOB (CASOB (Sicklepod); rate 0.5000 kg/ha): 1.0
Preemergence herbicidal rating CHEAL ([4]; rate 0.0156 kg/ha): 3.0
Preemergence herbicidal rating CHEAL ([4]; rate 0.0313 kg/ha): 5.0
Preemergence herbicidal rating CHEAL ([4]; rate 0.0625 kg/ha): 4.0
Preemergence herbicidal rating CHEAL ([4]; rate 0.1250 kg/ha): 9.0
Preemergence herbicidal rating CHEAL ([4]; rate 0.2500 kg/ha): 9.0
Preemergence herbicidal rating CHEAL ([4]; rate 0.5000 kg/ha): 9.0
Postemergence herbicidal rating GLXMAW ([5]; Rate 0.0156 kg/ha): 4.5
Postemergence herbicidal rating GLXMAW ([5]; Rate 0.0313 kg/ha): 5.0
Postemergence herbicidal rating GLXMAW ([5]; Rate 0.0625 kg/ha): 5.5
Postemergence herbicidal rating GLXMAW ([5]; Rate 0.1250 kg/ha): 6.0
Herbicidal rating CYPSE (CYPSE (Flatsedge) [6]; rate 0.0313 kg/ha): 0.0
Herbicidal rating CYPSE (CYPSE (Flatsedge) [6]; rate 0.0625 kg/ha): 0.0
Herbicidal rating CYPSE (CYPSE (Flatsedge) [6]; rate 0.1250 kg/ha): 0.0
Herbicidal rating CYPSE (CYPSE (Flatsedge) [6]; rate 0.2500 kg/ha): 0.0
Postemergence herbicidal rating CHEAL ([7]; Rate 0.0156 kg/ha): 1.0
Postemergence herbicidal rating CHEAL ([7]; Rate 0.0313 kg/ha): 4.0
Postemergence herbicidal rating CHEAL ([7]; Rate 0.0625 kg/ha): 5.0
Postemergence herbicidal rating CHEAL ([7]; Rate 0.1250 kg/ha): 9.0
